Measurements from the CheMixHub ionic liquid set.
Several values for one entry are separate records, joined by “and”; a condition that tells them apart may be missing. Identical values can stand only once.

Experiment: xn = mol fraction of the nth substance listed

CC(=O)[O-].CCCC[N+]1(C)CCCC1 + O
298.15 K, 101.3 kPa, frequency 100 MHz
Conditions	electrical conductivity [S/m]
x1 = 0.017	2.62
x1 = 0.163	0.985

CCCCCCCCCCCCCCCC[n+]1ccccc1.O=C([O-])C(O)c1ccccc1 + O
electrical conductivity [S/m], 101 kPa
Conditions	293.15 K	298.15 K	303.15 K	308.15 K	313.15 K
x1 = 1.08e-06	0.00061	0.00068	0.00076	0.00083	0.0009
x1 = 1.98e-06	0.001	0.0012	0.0013	0.0014	0.0016
x1 = 2.88e-06	0.00147	0.0016	0.0018	0.002	0.0022
x1 = 3.96e-06	0.0019	0.0022	0.0024	0.0026	0.0029
x1 = 4.69e-06	0.0023	0.0026	0.0029	0.0031	0.0035
x1 = 5.95e-06	0.00281	0.0032	0.0035	0.0038	0.0042
x1 = 7.21e-06	0.00341	0.0038	0.0042	0.0046	0.0051
x1 = 8.83e-06	0.00406	0.0046	0.005	0.0055	0.006
x1 = 1.045e-05	0.00469	0.0053	0.0058	0.0065	0.0071
x1 = 1.207e-05	0.00516	0.0058	0.0064	0.0071	0.0079
x1 = 1.351e-05	0.00562	0.00631	0.007	0.0077	0.0085
x1 = 1.478e-05	0.00603	0.0068	0.0075	0.0083	0.0092
x1 = 1.622e-05	0.00644	0.0072	0.008	0.0089	0.0098
x1 = 1.766e-05	0.00687	0.0077	0.0085	0.0094	0.0104

CCCCCCCCCCCC[N+]1(C)CCCC1.O=C([O-])c1ccccc1O + O
100 kPa
Conditions	electrical conductivity [S/m]
298.15 K, x1 = 3.592e-05	0.00892
298.15 K, x1 = 3.961e-05	0.00933
298.15 K, x1 = 4.883e-05	0.0111
308.15 K, x1 = 4.883e-05	0.0151
318.15 K, x1 = 3.592e-05	0.0144
318.15 K, x1 = 5.39e-05	0.02
318.15 K, x1 = 5.759e-05	0.0215
328.15 K, x1 = 5.39e-05	0.0254
328.15 K, x1 = 5.759e-05	0.0262

CCCCCC[n+]1ccn(C)c1.F[B-](F)(F)F + O
Conditions	viscosity [mPa·s]
298.15 K, 100 kPa, x1 = 0.0153	2.79

CCOCC[n+]1ccn(C)c1.C[C@@H](O)[C@H](N)C(=O)[O-] + O
100 kPa
Conditions	viscosity
298.15 K, x1 = 0.619	1040 mPa·s
313.15 K, x1 = 0.3647	245 mPa·s
323.15 K, x1 = 0.3158	118.5 mPa·s
323.15 K, x1 = 0.3647	125.5 mPa·s
328.15 K, x1 = 0.3158	96.1 mPa·s and 99.5 mPa·s
328.15 K, x1 = 0.5081	106 mPa·s
328.15 K, x1 = 1	115.4 mPa·s

CC[n+]1ccn(C)c1.O=C([O-])C(F)(F)F + O
101 kPa
Conditions	electrical conductivity, 298.15 K [S/m]	electrical conductivity, 313.15 K [S/m]	viscosity, 293.15 K [mPa·s]	viscosity, 298.15 K [mPa·s]	viscosity, 303.15 K [mPa·s]	viscosity, 313.15 K [mPa·s]
x1 = 0.001	0.3	0.41	1.01	0.9	0.8	0.66
x1 = 0.003	0.79	1.1	1.05	0.93	0.84	0.69
x1 = 0.004	1.2	1.6	1.1	0.98	0.87	0.72
x1 = 0.006	1.6	2.2	1.16	1.03	0.92	0.75
x1 = 0.009	2	2.5	1.24	1.1	0.98	0.81
x1 = 0.014	2.6	3.7	1.4	1.25	1.12	0.92
x1 = 0.02	3.1	4.4	1.57	1.4	1.2	0.97
x1 = 0.033	4	5.6	2.01	1.75	1.54	1.21
x1 = 0.051	4.4	6.6	2.53	2.2	1.92	1.5
x1 = 0.065	4.6	6.9	3	2.58	2.24	1.74
x1 = 0.108	4.5	6.9	4.39	3.76	3.25	2.49
x1 = 0.159	4.2	6.3	6.17	5.28	4.55	3.46
x1 = 0.243	3.5	5.3	8.98	7.65	6.56	4.96
x1 = 0.406	2.5	3.7	–	–	–	–
x1 = 0.418	–	–	14.4	12.3	10.6	8
x1 = 0.502	2.2	3.4	17.3	14.8	12.6	9.5
x1 = 0.53	2	3.1	18.7	15.9	13.6	10.2
x1 = 0.759	1.5	2.3	26.8	22.7	19.3	14.3
x1 = 1	1	1.6	39.5	32.9	27.5	19.9

CCn1cc[n+](C)c1.C[C@H](O)C(=O)[O-] + O
298.15 K, 100 kPa
Conditions	viscosity [mPa·s]
x2 = 0.3138	32.5
x2 = 0.9696	1.82

C[N+](C)(C)CCO.O=C([O-])c1cccnc1 + O
viscosity [mPa·s], 100 kPa
Conditions	x1 = 0.0008779	x1 = 0.001474	x1 = 0.00202	x1 = 0.002696	x1 = 0.00365	x1 = 0.005797
293.15 K	1.041	1.065	1.087	1.115	1.153	1.238
298.15 K	0.928	0.949	0.968	0.992	1.025	1.097
303.15 K	0.833	0.852	0.869	0.889	0.918	0.98
308.15 K	0.752	0.769	0.784	0.802	0.827	0.88
313.15 K	0.685	0.7	0.713	0.729	0.75	0.796

C[S+](C)C.O=S(=O)([N-]S(=O)(=O)C(F)(F)F)C(F)(F)F + O=C1CCCO1
Conditions	electrical conductivity [S/m]
298.15 K, 101 kPa, x2 = 0.92	1.57
